Results: ChEMBL document CHEMBL3046525, “In vitro antiproliferative activity of 11-aminoalkylamino-substituted 5H-indolo[2,3-b]quinolines; improving activity of neocryptolepines by installation of ester substituent” (Med Chem Res, 2013)

test system: not listed separately; experiment: Selectivity ratio of IC50 for mouse BALB/3T3 cells to IC50 for human HCT116 cells; assay type: cell-based, HCT-116; conditions: BALB/3T3 cells versus HCT116 cells, read-out: Ratio IC50

| SMILES | selectivity ratio |
| --- | --- |
| COC(=O)c1ccc2c(c1)c(NCCCN)c1c3ccccc3nc-1n2C | 4 |
| COC(=O)c1ccc2nc3n(C)c4ccccc4c(NCCCO)c-3c2c1 | 4 |
| COC(=O)c1ccc2nc3n(C)c4ccccc4c(NCCCN)c-3c2c1 | 4 |
| COC(=O)c1ccc2nc3n(C)c4ccccc4c(N4CCOCC4)c-3c2c1 | 4 |
| COC(=O)c1ccc2nc3n(C)c4ccccc4c(N4CCCN(C)CC4)c-3c2c1 | 4 |
| COC(=O)c1ccc2nc3n(C)c4ccccc4c(NCCCCN)c-3c2c1 | 4 |
| COC(=O)c1ccc2nc3n(C)c4ccccc4c(NCCN(C)C)c-3c2c1 | 4 |
| COC(=O)c1ccc2nc3n(C)c4ccccc4c(NCCCN(C)C)c-3c2c1 | 4 |
| COC(=O)c1ccc2nc3n(C)c4ccc(C(=O)OC)cc4c(NCCCN)c-3c2c1 | 28 |
| COC(=O)c1ccc2nc3n(C)c4ccc(Br)cc4c(NCCCN)c-3c2c1 | 4 |
| COC(=O)c1ccc2c(c1)c(NCCCN)c1c3cc(Br)ccc3nc-1n2C | 4 |
| Cn1c2nc3ccc(Br)cc3c-2c(NCCCN)c2cc(Cl)ccc21 | 4 |

test system: BALB/3T3; experiment: Cytotoxicity against Mus musculus (mouse) BALB/3T3 cells after 72 hr by SRB assay; assay type: cell-based; conditions: BALB/3T3, 72 h

| SMILES | IC50 |
| --- | --- |
| COC(=O)c1ccc2nc3n(C)c4ccc(Br)cc4c(NCCCN)c-3c2c1 | 833 nM |

test system: MV4-11; experiment: Antiproliferative activity against Homo sapiens (human) MV411 cells after 72 hr by MTT assay; assay type: functional, cell-based; conditions: MV4-11, 72 h

| IC50 | SMILES |
| --- | --- |
| 0.17 µM | Cn1c2nc3ccccc3c-2c(NCCCO)c2ccccc21 |
| 7.17 µM | CN1CCCN(c2c3c4ccccc4nc-3n(C)c3ccccc23)CC1 |
| 0.1 µM | Cn1c2nc3ccccc3c-2c(NCCCCN)c2ccccc21 |
| 0.056 µM | COC(=O)c1ccc2nc3n(C)c4ccc(Br)cc4c(NCCCN)c-3c2c1 |
| > 25 µM | Cn1c2nc3ccc(C(=O)O)cc3c-2c(NCCCN)c2ccccc21 |
| 9.28 µM | CN(C)CCNc1c2c3cc(C(=O)O)ccc3nc-2n(C)c2ccccc12 |
| > 25 µM | CN(C)CCCNc1c2c3cc(C(=O)O)ccc3nc-2n(C)c2ccccc12 |
| > 25 µM | Cn1c2nc3ccc(C(=O)O)cc3c-2c(NCCCO)c2ccccc21 |

test system: A549; experiment: Antiproliferative activity against Homo sapiens (human) A549 cells after 72 hr by SRB assay; assay type: functional, cell-based; conditions: A549, 72 h

| IC50 | SMILES |
| --- | --- |
| 194 nM | COC(=O)c1ccc2nc3n(C)c4ccc(Br)cc4c(NCCCN)c-3c2c1 |
